Experimental data: paper PMC5041959, “A high-content EMT screen identifies multiple receptor tyrosine kinase inhibitors with activity on TGFβ receptor” (Oncotarget, 2016)
Where two headings read alike, the source gives them in different places.

How the values were obtained:
NMuMG cells = experiment: High-content microscopy EMT screen in TGFβ-treated NMuMG cells (FA, SF, FN, cell count); format: cell-based, murine
SRC = SRC (Homo sapiens, UniProt P12931); experiment: Biochemical kinase profiling (33PanQinase radiometric assay); conditions: read-out: SRC IC50; ATP at apparent Km
Sequence of SRC (P12931 whole entry): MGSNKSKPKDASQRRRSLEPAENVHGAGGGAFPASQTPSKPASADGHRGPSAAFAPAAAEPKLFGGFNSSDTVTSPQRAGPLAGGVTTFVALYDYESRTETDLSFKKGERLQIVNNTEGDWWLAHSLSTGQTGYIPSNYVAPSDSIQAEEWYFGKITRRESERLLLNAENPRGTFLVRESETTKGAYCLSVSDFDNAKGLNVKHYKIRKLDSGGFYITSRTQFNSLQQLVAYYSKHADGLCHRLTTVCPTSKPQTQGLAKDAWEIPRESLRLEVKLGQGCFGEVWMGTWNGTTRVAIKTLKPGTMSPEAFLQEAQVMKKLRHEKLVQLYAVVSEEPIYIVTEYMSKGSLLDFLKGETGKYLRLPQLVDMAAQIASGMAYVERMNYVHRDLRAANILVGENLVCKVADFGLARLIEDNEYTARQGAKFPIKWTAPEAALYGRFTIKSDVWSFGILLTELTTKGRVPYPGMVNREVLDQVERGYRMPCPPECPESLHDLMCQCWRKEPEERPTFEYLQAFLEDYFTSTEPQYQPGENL

Py2T cells = experiment: High-content microscopy EMT assay in TGFβ-treated Py2T breast cancer cells; format: cell-based, murine; conditions: for Emax (maximal effect on cell count): compared to reference 10 μM SB-431542 = 100%
ROCK = ROCK cellular assay (MLC Thr18/Ser19 phosphorylation ELISA in A7r5 cells); format: cell-based, rat; conditions: 90 min compound
[1] = Mus musculus; NMuMG; cell count decreased by 50% compared to DMSO control; read-out: Tox IC50
[2] = NMuMG, TGFβ1 2 ng/ml plus compound, 4 days; parameter decreased by 50%
[3] = NMuMG; cell count decreased by 50% compared to DMSO control; read-out: Tox IC50
[4] = NMuMG; cell count increased by 50% compared to 100% with 10 μM SB-431542
[5] = NMuMG; compared to reference 10 μM SB-431542 = 100%
[6] = NMuMG, TGFβ1 2 ng/ml plus compound, 4 days; parameter decreased by 50%; read-out: FA IC50 (focal adhesion formation)
[7] = NMuMG, TGFβ1 2 ng/ml plus compound, 4 days; parameter decreased by 50%; read-out: FN IC50 (fibronectin patch formation)
[8] = NMuMG, TGFβ1 2 ng/ml plus compound, 4 days; parameter decreased by 50%; read-out: SF IC50 (stress fibers)
[9] = NMuMG; mean of IC50 values obtained for FA, SF, FN; read-out: EMT (FA/SF/FN) combined IC50
[10] = Py2T, TGFβ plus compound, 4 days
[11] = Py2T, cell count decreased by 50% compared to DMSO control, read-out: Tox IC50
[12] = Py2T, compared to 10 μM SB-431542, read-out: CCI IC50 (cell count increase)
[13] = Mus musculus, read-out: CCI IC50 (cell count increase)
[14] = Mus musculus, read-out: Emax (maximal effect on cell count)
[15] = Mus musculus, read-out: Tox IC50

Compound | IC50 (NMuMG cells; [1]) | FA IC50 (focal adhesion formation) (NMuMG cells; [2]) | FN IC50 (fibronectin patch formation) (NMuMG cells; [2]) | SF IC50 (stress fibers) (NMuMG cells; [2]) | Emax (maximal effect on cell count) (NMuMG cells; [5]) | further results
C#Cc1cccc(Nc2ncnc3cc(OCCOC)c(OCCOC)cc23)c1 [Erlotinib] | 68.5 nM | n.m. | n.m. | n.m. |  | Emax (maximal effect on cell count) (NMuMG cells): n.m.
N#CC(=C(/N)Sc1ccccc1N)/C(C#N)=C(/N)Sc1ccccc1N [U0126] |  | n.m. | n.m. | n.m. | n.m. | IC50 (NMuMG cells; [3]): 1600 nM; CCI IC50 (cell count increase) (NMuMG cells; [4]): n.m.
Cc1ccc2c(c1)C(=O)C1(O)CCN(c3ccccc3)C1=N2 (stereo not shown) [Blebbistatin] |  |  |  |  | 29.4% | IC50 (NMuMG cells; [6]): 4220 nM; IC50 (NMuMG cells; [7]): 2550 nM; IC50 (NMuMG cells; [8]): 3320 nM; IC50 (NMuMG cells; [3]): > 5130 nM; IC50 (NMuMG cells; [9]): 3360 nM; IC50 (SRC): 4370 nM
CC[C@@H](C(=O)[C@@H](C)[C@@H](O)[C@H](C)[C@@H]1O[C@@H]([C@@H](CC)C(=O)O)CC[C@@H]1C)[C@H]1O[C@]2(C=C[C@@H](O)[C@]3(CC[C@@](C)([C@H]4CC[C@](O)(CC)[C@H](C)O4)O3)O2)[C@H](C)C[C@@H]1C [Salinomycin] | 240 nM | n.m. | n.m. | n.m. |  | Emax (maximal effect on cell count) (NMuMG cells): n.m.
O=C(Nc1ccc(-c2cn[nH]c2)cc1)C1COc2ccccc2O1 (stereo not shown) [Rho kinase inhibitor V] |  |  |  |  | 13.4% | IC50 (NMuMG cells; [6]): 425 nM; IC50 (NMuMG cells; [7]): 374 nM; IC50 (NMuMG cells; [8]): 571 nM; IC50 (NMuMG cells; [3]): 6230 nM; IC50 (NMuMG cells; NMuMG; cell count increased by 50% compared to 100% with 10 μM SB-431542; read-out: CCI IC50 (cell count increase)): 106 nM; IC50 (NMuMG cells; [9]): 457 nM; FA IC50 (focal adhesions) (Py2T cells; [10]): n.m.; FN IC50 (fibronectin patches) (Py2T cells; [10]): n.m.; SF IC50 (stress fibers) (Py2T cells; [10]): n.m.; IC50 (Py2T cells; [11]): 2510 nM; IC50 (Py2T cells; [12]): 101 nM; Emax (maximal effect on cell count) (Py2T cells; Py2T): 33.3%; IC50 (ROCK): 150 nM
Nc1ncn([C@H]2C[C@H](O)[C@@H](CO)O2)c(=O)n1 [5-Aza-2′-deoxycytidine] | 391 nM | n.m. | n.m. | n.m. | n.m. | 
Nc1ncn([C@@H]2O[C@H](CO)[C@@H](O)[C@H]2O)c(=O)n1 [5-Azacytidine] | 1260 nM | n.m. | n.m. | n.m. | n.m. | 
CNC(=O)c1ccccc1Sc1ccc2c(/C=C/c3ccccn3)n[nH]c2c1 [Axitinib] |  |  |  |  | n.m. | 
O=c1[nH]c(=O)n([C@H]2C[C@H](O)[C@@H](CO)O2)cc1Br [5-Bromo-2′-deoxyuridine] | > 3000 nM |  |  |  |  | IC50 (NMuMG cells; Mus musculus, 96 h; NMuMG, TGFβ1 2 ng/ml plus compound, 4 days; parameter decreased by 50%; read-out: FA IC50 (focal adhesion formation)): 719 nM; IC50 (NMuMG cells; Mus musculus, 96 h; NMuMG, TGFβ1 2 ng/ml plus compound, 4 days; parameter decreased by 50%; read-out: FN IC50 (fibronectin patch formation)): 321 nM; IC50 (NMuMG cells; Mus musculus, 96 h; NMuMG, TGFβ1 2 ng/ml plus compound, 4 days; parameter decreased by 50%; read-out: SF IC50 (stress fibers)): 632 nM; IC50 (NMuMG cells; Mus musculus; read-out: CCI IC50 (cell count increase)): 300 nM; Emax (NMuMG cells; Mus musculus; read-out: Emax (maximal effect on cell count)): 19%
COc1cc2c(Nc3ccc(Br)cc3F)ncnc2cc1OCC1CCN(C)CC1 [Vandetanib] | 208 nM | n.m. | n.m. | n.m. | n.m. | 
Abamectin |  | n.m. | n.m. | n.m. | n.m. | IC50 (NMuMG cells; [3]): 9500 nM; CCI IC50 (cell count increase) (NMuMG cells; [4]): n.m.
CO[C@@H]1C[C@@H](C[C@H]2CC[C@H](C)[C@H]([C@@H](C)C(=O)O)O2)O[C@]2(O[C@](C)([C@H]3CC[C@@](C)([C@@H]4O[C@@H]([C@H]5O[C@@](O)(CO)[C@H](C)C[C@@H]5C)C[C@@H]4C)O3)C[C@H]2C)[C@@H]1C [Nigericin] | < 40 nM | n.m. | n.m. | n.m. | n.m. | 
Clc1ccc(Nc2nnc(Cc3ccncc3)c3ccccc23)cc1 [Vatalanib] | 10600 nM | n.m. | n.m. | n.m. | n.m. | 
c1ccc2c(c1)[I+]c1ccccc1-2 [Diphenyleneiodonium chloride (DPI), Diphenyleneiodonium chloride] | 453 nM | n.m. | n.m. | n.m. | n.m. | 
Cc1nc(Nc2ncc(C(=O)Nc3c(C)cccc3Cl)s2)cc(N2CCN(CCO)CC2)n1 [Dasatinib] | 50.9 nM | n.m. | n.m. | n.m. | n.m. | 
O=C(Cc1ccc(-c2ccc(OCCN3CCOCC3)cc2)cn1)NCc1ccccc1 [KX2-391] |  | n.m. | n.m. | n.m. | n.m. | IC50 (NMuMG cells; [3]): 15 nM; CCI IC50 (cell count increase) (NMuMG cells; [4]): n.m.
C[C@@H](Oc1cc(-c2cnn(C3CCNCC3)c2)cnc1N)c1c(Cl)ccc(F)c1Cl [Crizotinib] | 1720 nM | n.m. | n.m. | n.m. | n.m. | 
O=S(=O)(c1cccc2cnccc12)N1CCCNCC1 [Fasudil] |  |  |  |  |  | IC50 (NMuMG cells; [13]): 2870 nM; IC50 (NMuMG cells; Mus musculus, read-out: EMT (FA/SF/FN) combined IC50): 3020 nM; Emax (NMuMG cells; [14]): 28.2%; IC50 (NMuMG cells; [15]): > 25000 nM; IC50 (Py2T cells; [13]): 1680 nM; Emax (Py2T cells; [14]): 53.6%; IC50 (Py2T cells; [15]): > 25000 nM
COc1cc2c(Oc3ccc4[nH]c(C)cc4c3F)ncnc2cc1OCCCN1CCCC1 [Cediranib (azd2171), Cediranib] | 967 nM | n.m. | n.m. | n.m. | n.m. | 
COc1cc2ncnc(Nc3ccc(F)c(Cl)c3)c2cc1OCCCN1CCOCC1 [Gefitinib] |  |  |  |  |  | Emax (maximal effect on cell count) (NMuMG cells): n.m.
CCN(CC)CCNC(=O)c1c(C)[nH]c(/C=C2\C(=O)Nc3ccc(F)cc32)c1C [Sunitinib malate] | 5100 nM | n.m. | n.m. | n.m. | n.m. | 
CC(C)(C)n1nc(-c2ccc(Cl)cc2)c2c(N)ncnc21 [PP2] |  | n.m. | n.m. | n.m. | n.m. | IC50 (NMuMG cells; [3]): 4730 nM; CCI IC50 (cell count increase) (NMuMG cells; [4]): n.m.
CCn1c(-c2nonc2N)nc2cnc(Oc3cccc(NC(=O)c4ccc(OCCN5CCOCC5)cc4)c3)cc21 [GSK269962] |  |  |  |  |  | IC50 (Py2T cells; Py2T, TGFβ plus compound, 4 days, read-out: FA IC50 (focal adhesions)): 2 nM; IC50 (Py2T cells; Py2T, TGFβ plus compound, 4 days, read-out: FN IC50 (fibronectin patches)): 5 nM; IC50 (Py2T cells; Py2T, TGFβ plus compound, 4 days, read-out: SF IC50 (stress fibers)): 2 nM; IC50 (Py2T cells; [11]): 564 nM; IC50 (Py2T cells; [12]): 0.5 nM; Emax (maximal effect on cell count) (Py2T cells; Py2T): 53%; IC50 (ROCK): < 3 nM
COc1cc([C@@H]2c3cc4c(cc3[C@@H](O[C@@H]3O[C@@H]5CO[C@@H](C)O[C@H]5[C@H](O)[C@H]3O)[C@H]3COC(=O)[C@H]23)OCO4)cc(OC)c1O [Etoposide] | 1170 nM | n.m. | n.m. | n.m. | n.m. | 
CCN1CCN(Cc2ccc(-c3cc4c(N[C@H](C)c5ccccc5)ncnc4[nH]3)cc2)CC1 [AEE788] | 44 nM | n.m. | n.m. | n.m. | n.m. | 
CS(=O)(=O)CCNCc1ccc(-c2ccc3ncnc(Nc4ccc(OCc5cccc(F)c5)c(Cl)c4)c3c2)o1 [Lapatinib] | 134 nM | n.m. | n.m. | n.m. | n.m. | 
AZD4547 |  | n.m. | n.m. | n.m. |  | CCI IC50 (cell count increase) (NMuMG cells): n.m.; Emax (maximal effect on cell count) (NMuMG cells): n.m.; IC50 (NMuMG cells; [3]): 3030 nM
